Data: patent US20170224654A1, “PHARMACEUTICAL COMPOSITIONS AND METHODS FOR COUNTERING CHEMOTHERAPY INDUCED CARDIOTOXICITY” (Stem Cell Theranostics, Inc., priority 2016, published 2017)
pEC50: −log10 of the molar value. Entries after “also recorded” stand apart in the source; their conditions may differ.

Assays:
TOPOIIβ = molecular target: T1, TOPOIIβ (Homo sapiens, UniProt Q02880); experiment: kDNA decatenation assay; format: biochemical; conditions: for TOPOIIβ enzymatic inhibition (in words): DHM: even at >200 μM
T1 construct: purchased Inspiralis
T1 sequence (Q02880 whole entry): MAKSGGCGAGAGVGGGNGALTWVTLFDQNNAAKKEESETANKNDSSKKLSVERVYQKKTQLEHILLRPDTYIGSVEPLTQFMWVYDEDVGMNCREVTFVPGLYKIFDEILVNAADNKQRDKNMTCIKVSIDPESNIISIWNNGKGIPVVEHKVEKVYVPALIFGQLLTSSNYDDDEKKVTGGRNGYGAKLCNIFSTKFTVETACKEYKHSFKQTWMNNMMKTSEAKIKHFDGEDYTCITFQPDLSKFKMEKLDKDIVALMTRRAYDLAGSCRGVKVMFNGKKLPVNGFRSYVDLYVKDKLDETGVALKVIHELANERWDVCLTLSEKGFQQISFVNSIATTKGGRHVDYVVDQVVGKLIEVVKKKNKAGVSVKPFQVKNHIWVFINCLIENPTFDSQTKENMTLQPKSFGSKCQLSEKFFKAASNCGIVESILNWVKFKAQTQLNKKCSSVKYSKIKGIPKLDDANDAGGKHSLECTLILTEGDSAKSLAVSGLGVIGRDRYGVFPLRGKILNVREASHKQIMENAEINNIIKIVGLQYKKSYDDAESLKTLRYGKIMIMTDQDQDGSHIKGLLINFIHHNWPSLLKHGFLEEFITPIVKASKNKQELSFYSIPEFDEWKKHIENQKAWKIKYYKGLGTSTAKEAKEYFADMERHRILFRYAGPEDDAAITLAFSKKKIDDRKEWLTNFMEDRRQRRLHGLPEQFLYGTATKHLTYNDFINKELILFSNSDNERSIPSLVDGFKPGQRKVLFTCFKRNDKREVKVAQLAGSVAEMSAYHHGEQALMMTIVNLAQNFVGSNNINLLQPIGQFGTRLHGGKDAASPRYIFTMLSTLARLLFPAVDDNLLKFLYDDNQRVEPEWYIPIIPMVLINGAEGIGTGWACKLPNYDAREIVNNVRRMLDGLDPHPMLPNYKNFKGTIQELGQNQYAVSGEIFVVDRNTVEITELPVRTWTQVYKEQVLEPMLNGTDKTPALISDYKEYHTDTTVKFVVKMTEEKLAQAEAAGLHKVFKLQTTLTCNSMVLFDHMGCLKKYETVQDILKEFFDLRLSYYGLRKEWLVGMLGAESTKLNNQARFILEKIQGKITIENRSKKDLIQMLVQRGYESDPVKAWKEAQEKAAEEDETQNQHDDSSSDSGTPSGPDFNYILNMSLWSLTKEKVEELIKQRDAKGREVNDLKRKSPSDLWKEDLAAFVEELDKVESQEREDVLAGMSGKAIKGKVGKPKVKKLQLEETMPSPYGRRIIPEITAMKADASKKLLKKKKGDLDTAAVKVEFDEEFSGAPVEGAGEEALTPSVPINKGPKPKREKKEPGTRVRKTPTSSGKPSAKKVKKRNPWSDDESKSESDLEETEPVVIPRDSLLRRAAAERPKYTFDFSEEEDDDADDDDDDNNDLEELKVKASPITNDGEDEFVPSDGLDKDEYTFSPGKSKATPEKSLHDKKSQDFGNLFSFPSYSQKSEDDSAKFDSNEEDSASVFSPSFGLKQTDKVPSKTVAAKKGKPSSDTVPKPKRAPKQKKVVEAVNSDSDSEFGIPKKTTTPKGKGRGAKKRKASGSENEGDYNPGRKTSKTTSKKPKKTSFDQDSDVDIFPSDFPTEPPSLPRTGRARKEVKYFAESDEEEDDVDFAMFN

TOPOIIα = molecular target: T2, TOPOIIα (Homo sapiens, UniProt P11388); experiment: kDNA decatenation assay; format: biochemical; conditions: for TOPOIIα enzymatic inhibition (in words): DHM: even at >200 μM
T2 construct: purchased Inspiralis
T2 sequence (P11388 whole entry): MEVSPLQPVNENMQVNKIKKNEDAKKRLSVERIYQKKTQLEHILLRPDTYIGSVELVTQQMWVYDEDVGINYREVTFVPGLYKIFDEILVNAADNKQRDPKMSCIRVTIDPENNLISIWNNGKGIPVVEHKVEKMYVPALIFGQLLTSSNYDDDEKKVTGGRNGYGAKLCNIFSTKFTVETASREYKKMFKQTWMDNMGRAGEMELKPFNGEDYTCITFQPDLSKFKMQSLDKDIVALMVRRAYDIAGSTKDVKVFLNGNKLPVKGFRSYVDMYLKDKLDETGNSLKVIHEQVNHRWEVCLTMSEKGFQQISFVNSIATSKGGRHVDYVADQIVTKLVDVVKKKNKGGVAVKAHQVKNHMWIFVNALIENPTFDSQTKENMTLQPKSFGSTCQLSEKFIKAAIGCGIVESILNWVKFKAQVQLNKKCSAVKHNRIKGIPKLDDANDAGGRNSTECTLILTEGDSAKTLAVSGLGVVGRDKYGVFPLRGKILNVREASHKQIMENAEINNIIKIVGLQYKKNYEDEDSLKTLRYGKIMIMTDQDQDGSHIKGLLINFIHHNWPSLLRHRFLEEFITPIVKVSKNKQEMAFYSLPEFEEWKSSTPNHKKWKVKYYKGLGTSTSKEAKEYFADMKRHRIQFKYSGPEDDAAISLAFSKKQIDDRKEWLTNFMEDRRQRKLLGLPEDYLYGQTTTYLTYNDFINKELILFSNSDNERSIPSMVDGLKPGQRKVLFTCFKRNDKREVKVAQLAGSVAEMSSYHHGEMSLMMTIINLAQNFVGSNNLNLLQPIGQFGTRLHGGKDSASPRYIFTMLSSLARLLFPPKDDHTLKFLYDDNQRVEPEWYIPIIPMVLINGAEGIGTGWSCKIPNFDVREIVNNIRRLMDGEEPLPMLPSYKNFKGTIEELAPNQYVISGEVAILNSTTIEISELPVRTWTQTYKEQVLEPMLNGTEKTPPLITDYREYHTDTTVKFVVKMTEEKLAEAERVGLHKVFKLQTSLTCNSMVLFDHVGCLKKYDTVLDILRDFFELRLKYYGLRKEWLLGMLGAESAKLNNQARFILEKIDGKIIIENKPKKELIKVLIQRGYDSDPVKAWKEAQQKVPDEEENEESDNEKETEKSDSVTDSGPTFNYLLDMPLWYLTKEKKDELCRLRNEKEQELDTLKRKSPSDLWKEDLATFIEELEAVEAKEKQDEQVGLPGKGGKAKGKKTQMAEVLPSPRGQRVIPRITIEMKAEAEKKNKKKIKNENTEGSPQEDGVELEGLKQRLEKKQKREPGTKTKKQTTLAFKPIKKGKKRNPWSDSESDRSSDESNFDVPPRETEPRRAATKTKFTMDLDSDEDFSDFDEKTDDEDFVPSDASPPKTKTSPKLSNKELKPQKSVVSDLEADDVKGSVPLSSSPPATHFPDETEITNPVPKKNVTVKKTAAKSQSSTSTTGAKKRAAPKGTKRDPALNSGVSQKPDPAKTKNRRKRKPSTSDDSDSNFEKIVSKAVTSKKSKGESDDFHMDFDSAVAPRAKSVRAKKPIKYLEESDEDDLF

[1] = test system: Human iPSC-derived cardiomyocytes; experiment: Cytotoxicity of MYR analogs to cardiomyocytes; conditions: for cytotoxicity / toxic effects to cardiomyocytes (in words): at or below 100 μM as stated; for Toxicity: 100 μM
[2] = test system: Doxorubicin treated human iPSC-derived cardiomyocytes; experiment: iPSC-CM protection of MYR analogs against doxorubicin; format: cell-based
[3] = test system: TOPOII enzymes (TOPOIIα and TOPOIIβ); experiment: kDNA decatenation assay, TOPOIIα and TOPOIIβ jointly; format: biochemical; conditions: discussion of Table 1
Method: 200 ng of kinetoplast DNA (kDNA) was incubated with one enzymatic unit of TOPOIIα or TOPOIIβ enzyme (Inspiralis) and with various concentrations of MYR or DEX at 37° C. for 30 min. The reaction was then separated on 1% agarose gel for visualization of decatenated DNA (bottom band). The efficiency of catalytic inhibition was quantified by measuring the relative intensity of the band.

[4] = test system: induced pluripotent stem cell-derived cardiomyocytes; experiment: Acute toxicity on electrophysiology (MEA beat period, field potential duration); format: cell-based
Method: Samples were either mock-treated with 0.1% DMSO, or treated with increasing concentrations of the indicated drug for at least 20 minutes. Cardiomyocytes were treated with the hERG potassium channel blocker E4031 as a control. Following treatment, the beat period and field potential duration (FPD) were measured in each sample using the MEA.

Structure (SMILES) | TOPOIIβ Inhibition (TOPOIIβ) | TOPOIIα Inhibition (TOPOIIα) | cardioprotection (in words) ([2]; discussion of Table 1) | TOPOII (TOPOIIα and TOPOIIβ) inhibition (in words) [3] | other results
O=C1c2ccc(O)cc2OC(c2cc(O)c(O)c(O)c2)C1O (stereo in doubt) [Compound 30, dihydrorobinetin] | − | − |  |  | TOPOIIβ enzymatic inhibition (in words) (TOPOIIβ): no inhibitory activity; TOPOIIα enzymatic inhibition (in words) (TOPOIIα): no inhibitory activity
O=c1c(O)c(-c2ccccc2)oc2cc(O)cc(O)c12 [3,5,7-trihydroxyflavone] |  |  | neither cardioprotection nor TOPOII inhibition | neither cardioprotection nor TOPOII inhibition | cytotoxicity / toxic effects to cardiomyocytes (in words) [1]: generalized cytotoxicity
COc1ccc2c(=O)c(OC)c(-c3cc(OC)c(OC)c(OC)c3)oc2c1 [3,7,3′,4′,5′-O-pentamethylrobinetin] |  |  | entirely failed to display cardioprotection or TOPOII inhibition | entirely failed to display cardioprotection or TOPOII inhibition | 
COc1cc(-c2oc3cc(O)cc(O)c3c(=O)c2O)cc(OC)c1OC [3′,4′,5′-O-trimethylmyricetin] |  |  | entirely failed to display cardioprotection or TOPOII inhibition | entirely failed to display cardioprotection or TOPOII inhibition | 
COc1cc(-c2oc3cc(O)ccc3c(=O)c2O)cc(OC)c1OC [3′,4′,5′-O-trimethylrobinetin] |  |  | entirely failed to display cardioprotection or TOPOII inhibition | entirely failed to display cardioprotection or TOPOII inhibition | 
COc1cc(-c2oc3cc(O)cc(O)c3c(=O)c2O)cc(OC)c1O [3′,5′-O-dimethylmyricetin] |  |  | neither cardioprotection nor TOPOIIα and TOPOIIβ inhibition | neither cardioprotection nor TOPOIIα and TOPOIIβ inhibition | 
COc1cc(-c2oc3cc(O)cc(O)c3c(=O)c2O)cc(O)c1O [3′-O-methylmyricetin] |  |  | conferred cardioprotection | failed to inhibit TOPOII enzymes | cytotoxicity / toxic effects to cardiomyocytes (in words) [1]: without showing generalized cytotoxicity; pEC50 ([2]; Homo sapiens, Cardiomyocyte, discussion of Table 1, read-out: EC50 / potency for cardioprotection): ~4.23
COc1c(O)cc(-c2oc3cc(O)cc(O)c3c(=O)c2O)cc1O [4′-O-methylmyricetin] |  |  | conferred cardioprotection | without TOPOII inhibition | 
COc1ccc2c(=O)c(O)c(-c3cc(OC)c(OC)c(OC)c3)oc2c1 [7,3′,4′,5′-O-tetramethylrobinetin] |  |  | entirely failed to display cardioprotection or TOPOII inhibition | entirely failed to display cardioprotection or TOPOII inhibition | 
O=c1cc(-c2cc(O)c(O)c(O)c2)oc2cc(O)ccc12 [7,3′,4′,5′-tetrahydroxyflavone] |  |  | displayed cardioprotection | did not inhibit TOPOII enzymes | 
O=c1c(O)c(-c2cc(O)c(O)c(O)c2)oc2cc(O)ccc12 [Compound 2, 3,7,3′,4′,5′-pentahydroxyflavone] |  |  |  |  | TOPOIIβ enzymatic inhibition (in words) (TOPOIIβ): high level of inhibition; TOPOIIα enzymatic inhibition (in words) (TOPOIIα): high level of inhibition; Toxicity [1]: −
O=c1cc(-c2cc(O)c(O)c(O)c2)oc2cc(O)cc(O)c12 [Compound 3, 5,7,3′,4′,5′-pentahydroxyflavone] |  |  | displayed cardioprotection | TOPOII inhibition | cytotoxicity / toxic effects to cardiomyocytes (in words) ([1]; listed as tricetin): exhibits some toxic effects at concentrations less than 100 μM; also recorded: low level of cytotoxicity at 100 μM
O=c1c(O)c(-c2ccc(O)c(O)c2)oc2cc(O)cc(O)c12 [Compound 4, 3,5,7,3′,4′-pentahydroxyflavone] |  |  | conferred cardioprotection | exhibited TOPOII inhibition | cytotoxicity / toxic effects to cardiomyocytes (in words) [1]: high level of general cytoxicity
O=c1cc(-c2cc(O)c(O)c(O)c2)oc2cc(O)ccc12 [Compound 6, 7,3′,4′,5′-tetrahydroxyflavone] | − | − |  |  | Toxicity [1]: −
O=c1ccoc2cc(O)ccc12 [Compound 7-hydroxy-4-chromone, 7-hydroxy-4-chromone] |  |  | no positive effect in cardiac protection | Nor did either compound confer TOPOIIβ or a inhibition | cytotoxicity / toxic effects to cardiomyocytes (in words) [1]: high level of cytotoxicity at 100 μM
O=c1cc(-c2cc(O)c(O)c(O)c2)oc2ccccc12 [Compound 8, 3′,4′,5′-trihydroxyflavone] | − | − |  |  | Toxicity [1]: −
O=c1cc(-c2ccc(O)c(O)c2)oc2cc(O)cc(O)c12 [Compound 9, 5,7,3′,4′-tetrahydroxyflavone] | − | − |  |  | 

Structure (SMILES) | TOPOIIβ Inhibition (TOPOIIβ) | TOPOIIα Inhibition (TOPOIIα) | cardioprotection (in words) ([2]; discussion of Table 1) | TOPOII (TOPOIIα and TOPOIIβ) inhibition (in words) [3] | other results
O=c1c(O)c(-c2ccc(O)cc2)oc2cc(O)ccc12 [Compound 10, 3,7,4′-trihydroxyflavone] | − | − |  |  | cytotoxicity / toxic effects to cardiomyocytes (in words) [1]: exhibited toxic effects at concentrations below 100 μM
O=c1cc(-c2ccc(O)c(O)c2)oc2cc(O)ccc12 [Compound 11, 7,3′,4′-trihydroxyflavone] | − | − |  |  | 
O=c1c(O)c(-c2ccc(O)c(O)c2)oc2ccccc12 [Compound 12, 3,3′,4′-trihydroxyflavone] | − | − |  |  | 
O=c1cc(-c2ccc(O)cc2)oc2ccccc12 [Compound 17, 4′-hydroxyflavone] |  |  |  |  | Toxicity [1]: −; Emax ([2]; Homo sapiens, iPSC-CM, initial screen at 10 μM or 100 μM, read-out: iPSC-CM protection Max Effect (%)): < 30%
O=c1ccoc2ccccc12 [Compound 29, chromone] |  |  |  |  | Toxicity [1]: −
COc1cc(-c2oc3cc(O)cc(O)c3c(=O)c2O)cc(O)c1O [Compound 31, 3′-O-methylmyricetin] | − | − |  |  | 
COc1c(O)cc(-c2oc3cc(O)cc(O)c3c(=O)c2O)cc1O [Compound 32, 4′-O-methylmyricetin] | − | − |  |  | 
COc1cc(-c2oc3cc(O)cc(O)c3c(=O)c2O)cc(OC)c1O [Compound 33, 3′,5′-O-dimethylmyricetin] | − | − |  |  | 
COc1cc(-c2oc3cc(O)cc(O)c3c(=O)c2O)cc(OC)c1OC [Compound 34, 3′,4′,5′-O-trimethylmyricetin] | − | − |  |  | 
COc1cc(-c2oc3cc(O)ccc3c(=O)c2O)cc(OC)c1OC [Compound 35, 3′,4′,5′-O-trimethylrobinetin] | − | − |  |  | 
COc1ccc2c(=O)c(O)c(-c3cc(OC)c(OC)c(OC)c3)oc2c1 [Compound 36, 7,3′,4′,5′-O-tetramethylrobinetin] | − | − |  |  | 
COc1ccc2c(=O)c(OC)c(-c3cc(OC)c(OC)c(OC)c3)oc2c1 [Compound 37, 3,7,3′,4′,5′-O-pentamethylrobinetin] | − | − |  |  | 
O=c1ccoc2cc(O)ccc12 [Compound 38, 7-hydroxy-4-chromone] | − | − |  |  | 
C[C@H](CCC(=O)O)[C@H]1CC[C@H]2[C@@H]3[C@H](O)C[C@@H]4C[C@H](O)CC[C@]4(C)[C@H]3CC[C@]12C [chenodeoxycholic acid] |  |  |  |  | acute drug toxicity (beating) ([4]; higher concentrations): beating cessation; beat period or field potential duration, as compared to control samples ([4]; lower drug concentration, at least 20 minutes): no appreciable difference
O=c1ccoc2ccccc12 [chromone] |  |  | no positive effect in cardiac protection | Nor did either compound confer TOPOIIβ or a inhibition | 
O=C1c2c(O)cc(O)cc2O[C@H](c2cc(O)c(O)c(O)c2)[C@H]1O [dihydromyricetin] |  |  |  |  | TOPOIIβ enzymatic inhibition (in words) (TOPOIIβ): did not inhibit; TOPOIIα enzymatic inhibition (in words) (TOPOIIα): did not inhibit
